Assay: gradient 5% acetonitrile 3 min, to 50% in 2 min, to 85% in 15 min, held 3 min, 100 µL/min
Conditions: column: Zorbax Extend-C18 2.1 x 50 mm; eluents: water / acetonitrile, 0.1% formic acid
Outline: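 Pure standards were analyzed in mixtures of ~100 molecules using HPLC coupled to a quadrupole time-of-flight mass spectrometer, in both positive and negative ionization mode. Separation used a Zorbax Extend-C18 column (2.1 × 50 mm, 1.8 μm) at 100 μL/min, with water and acetonitrile each containing 0.1% formic acid. Dead and dwell volumes were 40 μL and 900 μL, and data were collected over 3 months. Retention time was read from computationally picked adduct peaks, each inspected manually.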

Row | Structure (SMILES) | RP-LC retention time
1 | CCOc1ccc(-c2ccc(=O)n(Cc3nc(-c4ccccn4)no3)n2)cc1 | 813 s
2 | O=C(NCC1CCCO1)c1cn(-c2cc(-c3nc(C4CC4)no3)ccn2)cn1 (stereo not given) | 762 s
3 | Cc1ccc(S(=O)(=O)Nc2nc3ccccc3nc2Nc2ccc3nsnc3c2)cc1 | 1220 s
4 | CC(=O)OCOC(c1ccc2ccccc2c1)P(=O)(OCOC(C)=O)OCOC(C)=O (stereo not given) | 854 s
5 | Cc1ccc(-c2cc3c4nnc(SCC(=O)Nc5cccc(C(F)(F)F)c5)n4ccn3n2)cc1 | 1040 s
6 | Cc1ccc(NC(=O)Cn2nc3n(c2=O)CCCC3)cc1 | 640 s
7 | Fc1cc(F)cc(-c2nnc(Cc3nc(-c4ccccc4F)no3)o2)c1 | 1060 s
8 | O=C(c1ccncc1)N1CCCCC1c1nc(-c2ccncc2)no1 (stereo not given) | 689 s
9 | Cc1csc(-c2ccc(CNC(=O)c3ccnn3C)cc2)n1 | 772 s
10 | CC(=O)Nc1ccc(S(=O)(=O)NC2(c3nc(C4CC4)no3)CCCCC2)cc1Cl | 813 s
11 | CNC(=O)c1cc(=O)[nH]c2ccccc12 | 580 s
12 | COc1ccc(-c2nnc(SCc3cc(=O)n4ccsc4n3)o2)cc1OC | 700 s
13 | CCN(CC)C(=O)Cn1c(=O)c2cnc(-c3ccc(Cl)cc3)nc2n(CC)c1=O | 740 s
14 | COc1ccc(N2CCN(CCCNC(=O)C3CCCN(c4nccc(C)n4)C3)CC2)cc1 (stereo not given) | 603 s
15 | CSCC[C@H](NC(=O)COc1cc(C)cc2oc(=O)c3c(c12)CCC3)C(=O)O | 769 s
16 | O=C(Nc1nnc2n1CCS2)c1cc(Br)ccc1Cl | 657 s
17 | Cc1nnc2ccc(-c3noc(-c4ccc(Cl)cc4)n3)cn12 | 959 s
18 | COc1ccc(NC(=O)C2CCc3nc(N4CCCCC4)ncc3C2)cc1C(F)(F)F (stereo not given) | 894 s
19 | CCC(=O)N1CCc2cc(N3CC(C(=O)NCc4ccc(F)cc4)CC3=O)ccc21 (stereo not given) | 725 s
20 | Cc1cc(F)ccc1NC(=O)C1CC(=O)N(c2ccc3c(c2)CCN3C(=O)C2CC2)C1 (stereo not given) | 758 s
21 | COc1ccc(N2CCN(C(=O)c3cn4nc(OC)ccc4n3)CC2)cc1 | 683 s
22 | COc1ccc(-c2nc(-c3ccc4oc(C)nc4c3)no2)cc1 | 1090 s
23 | CC1(C(=O)NCc2ccc(F)cc2)Cn2cnc(C(=O)Nc3cc(F)ccc3F)c2C(=O)N1C1CC1 (stereo not given) | 847 s
24 | Cc1ccc(-c2noc(CN3C(=O)COc4ccccc43)n2)cc1C | 1110 s

Row | Structure (SMILES) | RP-LC retention time
25 | Cn1nccc1-c1cccc(-c2noc(-c3ccc(Br)cc3)n2)c1 | 1280 s
26 | CC(C)CCN1CCC(N2CCN(C(=O)CC(C)C)CC2)C1=O (stereo not given) | 579 s
27 | COc1ccc(OC)c(NC(=O)CCc2c(C)nn(-c3cc(N4CCCC4)ncn3)c2C)c1 | 827 s
28 | CCOC(=O)Cc1ccc(NC(=O)NCCc2c(C)nn(C)c2C)cc1 | 644 s
29 | Cn1nccc1-c1cccc(-c2noc(-c3cc(F)cc(F)c3)n2)c1 | 1220 s
30 | CCCCc1ccc(NC(=O)N2CCC3(C2)c2nc[nH]c2CCN3C)cc1 (stereo not given) | 565 s
31 | Cc1nnc(-c2ccncc2)o1 | 547 s
32 | COc1cccc(CNC(=O)N2CCCC2c2cc(C(C)C)on2)c1 (stereo not given) | 832 s
33 | COc1ccc(OC)c(-c2ccc(=O)n(CC(=O)Nc3ccc(-n4cnnn4)cc3)n2)c1 | 689 s
34 | CCOc1nn(CC)cc1-c1nnc(SCC(=O)N2CCCc3ccccc32)n1CC | 734 s
35 | CC(C)CNC(=O)c1cn(-c2ncccc2-c2nc(C(C)(C)C)no2)cn1 | 872 s
36 | CCNC(=O)C1CCCN(c2nc3ncn(CC(=O)Nc4cc(C)cc(C)c4)c(=O)c3s2)C1 (stereo not given) | 716 s
37 | CCOc1ccc(-c2cn3ccn(-c4cccc(F)c4)c(=O)c3n2)cc1 | 846 s
38 | CCc1nc2cc(N3CCCC(C(=O)NCC(C)C)C3)cnc2nc1CC (stereo not given) | 790 s
39 | Cc1cc2nc(CSc3nnc(-c4cccc(Cl)c4)o3)cc(=O)n2o1 | 792 s
40 | COc1ccc(S(=O)(=O)Nc2ccc(-c3cn4ccc(C)nc4n3)cc2)c(C)c1C | 715 s
41 | O=C(COc1ccc(Cl)cc1)NCC1(c2ccc(F)cc2)CC1 | 988 s
42 | Cc1ccc(OCC(=O)NCc2ccc(F)cc2)nn1 | 607 s
43 | Fc1ccc(-c2nc(CC3CCNC3)no2)cc1 (stereo not given) | 621 s
44 | COc1nccnc1NC1CCN(C(=O)Cc2ccsc2)CC1 | 921 s
45 | O=C(Cc1ccccc1)NCCSc1c[nH]c2ccccc12 | 790 s
46 | CCOCCOC1CCN(S(=O)(=O)Cc2ccccc2F)CC1 | 877 s
47 | CCn1c(=O)c2ccn(CC(=O)Nc3ccc(Cl)cc3)c2n(CC)c1=O | 747 s
48 | Cc1cccc2nnc(N3CCN(C(=O)c4cc(F)cc(F)c4)CC3)n12 | 669 s

Further lines, results first:

Row | RP-LC retention time | Structure (SMILES)
49 | 1020 s | CC(NC(=O)c1sc2ncccc2c1-n1cccc1)c1ccc2c(c1)OCCO2 (stereo not given)
50 | 1010 s | Cc1ccc(CNC(=O)CCC2CCCN(S(=O)(=O)c3ccccc3C)C2)cc1 (stereo not given)
51 | 635 s | Cc1ccc2nc3sc(C(=O)Nc4c(C)n(C)n(-c5ccccc5)c4=O)cc3c(=O)n2c1
52 | 771 s | COc1cccc(Nc2c(-c3ccc(N(C)C)cc3)nc3cnccn23)c1
53 | 966 s | COc1ccc2nc(NC(=O)Nc3ccccc3)sc2c1
54 | 982 s | COc1ccc(NC(=O)C2CCCN(c3nc4ccccc4nc3OC)C2)cc1OC (stereo not given)
55 | 623 s | Cc1nc2ccc(NC(=O)c3cccnc3)cc2c(=O)n1-c1ccc(F)cc1
56 | 703 s | CCC(C)C(NC(=O)c1cccc(N(C)C)c1)C(=O)Nc1nc2ccccc2[nH]1 (stereo not given)
57 | 1200 s | Cc1ccc(C)c(S(=O)(=O)N2CCc3nc(-c4ccc(F)cc4)ncc3C2)c1
58 | 903 s | O=S(=O)(c1ccc2c(c1)CCCC2)N1CCN(c2ccc(-c3ccco3)nn2)CC1
59 | 640 s | CCOc1ccc(C(=O)NCC(=O)Nc2nc3ccccc3[nH]2)cc1OCC
60 | 732 s | CCOc1ccc(NC(=O)Cn2c(N3CCOCC3)nc(CC)cc2=O)cc1
61 | 775 s | O=C(Nc1sc2c(c1C(c1ccccn1)N1CCN(c3ccccn3)CC1)CCCC2)c1ccco1 (stereo not given)
62 | 623 s | O=C(NCCn1cnc2cc(C(=O)N3CCCC3)ccc21)Nc1cccc(Br)c1
63 | 912 s | O=C(NCc1csc(-c2ccccc2)n1)C1CCN(S(=O)(=O)c2cccc(F)c2)CC1
64 | 788 s | CN1c2ccc(Cl)cc2C(=O)NC12CCN(C(=O)Nc1ccc(F)cc1)CC2
65 | 711 s | CCS(=O)(=O)c1ccc(CC(=O)Nc2ccc(F)cc2F)cc1
66 | 840 s | Cc1cc(-c2ccc(S(=O)(=O)N3CCC(C(=O)NCC4CCCCC4)CC3)o2)n[nH]1
67 | 826 s | CCOCCCNC(=O)C1CCCN(c2ccc(=O)n(-c3ccc(C)c(Cl)c3)n2)C1 (stereo not given)
68 | 1130 s | CC(C)c1ccc(S(=O)(=O)N2CC=C(c3cn(C)c4ncccc34)CC2)cc1
69 | 1270 s | CCOC(=O)c1ccc(N(C)c2csc(-c3ccccc3)n2)cc1

Row | RP-LC retention time | Structure (SMILES)
70 | 590 s | Cc1ccc(NC(=O)CCNc2cnc3cnccn23)cc1Cl
71 | 975 s | CC(C)N1C(=O)c2cccnc2Sc2cc(NC(=O)c3ccc(Cl)s3)ccc21
72 | 684 s | COc1cccc(NC(=O)NCC(c2cccnc2)c2cn(C)c3ccccc23)c1 (stereo not given)
73 | 890 s | COC1C(=O)N(c2cccc(F)c2)C12CCN(C(=O)Nc1ccccc1F)CC2 (stereo not given)
74 | 817 s | CCOC(=O)c1ccc(NC(=O)NCc2ccccc2)cc1
75 | 1310 s | COc1cccc(N2CCN(S(=O)(=O)c3cc(-c4nc(C(C)C)cs4)cs3)CC2)c1
76 | 602 s | CN1CCC(NC(=O)c2ncoc2-c2ccccc2)CC1
77 | 951 s | Cc1noc(C)c1-c1ccc(S(=O)(=O)N2CCCC2)cc1
78 | 594 s | O=C(Nc1cccnc1)c1ccccc1OCc1ccc(S(=O)(=O)N2CCOCC2)o1
79 | 775 s | O=c1c2scc(-c3ccc(Br)cc3)c2ncn1Cc1cccnc1
80 | 686 s | COc1ccc(OC)c(S(=O)(=O)NCC2(C)CCOCC2)c1
81 | 880 s | O=C(NCc1ccco1)C1CCCN(c2nccnc2Sc2ccccc2)C1 (stereo not given)
82 | 1130 s | Cc1cccc(NC(=O)C2CCCN(S(=O)(=O)c3cc(-c4noc(C5CCC5)n4)cs3)C2)c1 (stereo not given)
83 | 877 s | COc1ccccc1-c1noc(Cn2nc(-c3ccc4c(c3)OCO4)ccc2=O)n1
84 | 666 s | COc1ccc(C)cc1NC(=O)C1CCN(S(=O)(=O)c2cn(C)cn2)CC1
85 | 831 s | COc1cccc(NC(=O)N2CC(c3nc(Cc4ccccc4)no3)C2)c1OC
86 | 741 s | Cc1ccccc1OCC(=O)NCC1CC(=O)N(c2ccccc2)C1 (stereo not given)
87 | 864 s | O=C(c1ccccc1Cl)N1CCC(Cc2nnc(-c3ccccc3)o2)CC1
88 | 735 s | O=C(NC1CCN(c2cc(-c3ccc(F)cc3)[nH]n2)C1)c1cccc(F)c1 (stereo not given)
89 | 847 s | Cc1nnc(-c2ccc3ccn(CC(=O)Nc4cccc(Cl)c4)c3c2)o1
90 | 1070 s | O=S(=O)(c1cc(-c2nnc(-c3ccc(F)cc3)o2)ccc1Cl)N1CCCC1
